The values that follow come from article PMC5218480 (PLoS ONE, 2017).

This assay concerns MV-4-11 cells. The assay is described as follows: Gene expression microarray analysis (Affymetrix PrimeView) and GSEA. Further details: RFU PODN (11730768_x_at) / Fold change /veh PODN (11730768_x_at) / RFU LINC00158 (11744669_a_at) / Fold change /veh LINC00158 (11744669_a_at) / RFU DUSP10 (11751237_a_at) / Fold change /veh DUSP10 (11751237_a_at) / RFU ID3 (11757404_x_at) / Fold change /veh ID3 (11757404_x_at) / RFU PLEKHG5 (11737974_s_at) / Fold change /veh PLEKHG5 (11737974_s_at) / RFU LRRC4B (11730491_at) / Fold change /veh LRRC4B (11730491_at) / RFU GIMAP4 (11747438_a_at) / Fold change /veh GIMAP4 (11747438_a_at) / RFU KRT8 (11758183_x_at) / Fold change /veh KRT8 (11758183_x_at) / RFU CNN1 (11734310_a_at) / Fold change /veh CNN1 (11734310_a_at) / RFU VPS37D (11726825_at) / Fold change /veh VPS37D (11726825_at) / RFU C10orf10 (11716522_x_at) / Fold change /veh C10orf10 (11716522_x_at) / RFU KIR2DL2 /// KIR2DL4 /// KIR2DL5A /// KIR2DL5B /// KIR2DS1 /// KIR2DS2 /// KIR2DS3 /// KIR2DS4 /// KIR3DL3 /// KIR3DL3 /// KIR3DS1 (11738374_at) / Fold change /veh KIR2DL2 /// KIR2DL4 /// KIR2DL5A /// KIR2DL5B /// KIR2DS1 /// KIR2DS2 /// KIR2DS3 /// KIR2DS4 /// KIR3DL3 /// KIR3DL3 /// KIR3DS1 (11738374_at) / RFU C1QL1 (11718748_at) / Fold change /veh C1QL1 (11718748_at) / RFU TMPRSS4 (11747572_a_at) / Fold change /veh TMPRSS4 (11747572_a_at) / RFU HAMP (11756126_x_at) / Fold change /veh HAMP (11756126_x_at) / RFU RNFT2 (11725882_a_at) / Fold change /veh RNFT2 (11725882_a_at) / RFU NR4A2 (11747474_a_at) / Fold change /veh NR4A2 (11747474_a_at) / RFU ABCC12 (11746883_a_at) / Fold change /veh ABCC12 (11746883_a_at) / RFU TMEM136 (11760407_x_at) / Fold change /veh TMEM136 (11760407_x_at) / RFU CLDN22 /// WWC2 (11732394_at) / Fold change /veh CLDN22 /// WWC2 (11732394_at) / RFU HLA-DPB1 (11760878_x_at) / Fold change /veh HLA-DPB1 (11760878_x_at) / RFU SPINT1 (11716480_a_at) / Fold change /veh SPINT1 (11716480_a_at) / RFU GAP43 (11754022_s_at) / Fold change /veh GAP43 (11754022_s_at) / RFU A4GNT (11735810_at) / Fold change /veh A4GNT (11735810_at) / RFU PRB3 (11715151_x_at) / Fold change /veh PRB3 (11715151_x_at) / RFU TUBB4B (11761932_at) / Fold change /veh TUBB4B (11761932_at) / RFU CAPN14 (11732068_a_at) / Fold change /veh CAPN14 (11732068_a_at) / RFU TMCC2 (11721928_a_at) / Fold change /veh TMCC2 (11721928_a_at) / RFU IRGQ (11745062_a_at) / Fold change /veh IRGQ (11745062_a_at) / RFU FAM174B (11720279_a_at) / Fold change /veh FAM174B (11720279_a_at) / RFU TMPRSS4 (11748680_a_at) / Fold change /veh TMPRSS4 (11748680_a_at) / RFU FAM212B (11763350_a_at) / Fold change /veh FAM212B (11763350_a_at) / RFU PLEKHG5 (11743358_a_at) / Fold change /veh PLEKHG5 (11743358_a_at) / RFU ZSCAN30 (11745921_a_at) / Fold change /veh ZSCAN30 (11745921_a_at) / RFU CMKLR1 (11741424_a_at) / Fold change /veh CMKLR1 (11741424_a_at) / RFU LOC101060620 /// MAPK8IP1 (11723275_at) / Fold change /veh LOC101060620 /// MAPK8IP1 (11723275_at) / RFU SPTSSB (11747773_x_at) / Fold change /veh SPTSSB (11747773_x_at) / RFU PRSS12 (11739890_at) / Fold change /veh PRSS12 (11739890_at) / RFU BIN1 (11741810_x_at) / Fold change /veh BIN1 (11741810_x_at) / RFU WNT11 (11732464_a_at) / Fold change /veh WNT11 (11732464_a_at) / RFU C10orf10 (11716521_a_at) / Fold change /veh C10orf10 (11716521_a_at) / RFU C5orf56 (11738089_at) / Fold change /veh C5orf56 (11738089_at) / RFU CYB561 (11721691_x_at) / Fold change /veh CYB561 (11721691_x_at) / RFU ANKRD19P (11752326_a_at) / Fold change /veh ANKRD19P (11752326_a_at) / RFU OR2T12 /// OR2T33 /// OR2T8 (11738714_s_at) / Fold change /veh OR2T12 /// OR2T33 /// OR2T8 (11738714_s_at) / RFU VCAN (11748164_a_at) / Fold change /veh VCAN (11748164_a_at) / RFU JSRP1 (11732532_at) / Fold change /veh JSRP1 (11732532_at) / RFU KRTAP10-11 (11738290_x_at) / Fold change /veh KRTAP10-11 (11738290_x_at) / RFU MYO3A (11730013_a_at) / Fold change /veh MYO3A (11730013_a_at) / RFU EBF3 (11725865_a_at) / Fold change /veh EBF3 (11725865_a_at) / RFU CAMK2N1 (11719241_x_at) / Fold change /veh CAMK2N1 (11719241_x_at) / RFU C5orf56 (11738088_a_at) / Fold change /veh C5orf56 (11738088_a_at) / RFU OLFML3 (11715873_a_at) / Fold change /veh OLFML3 (11715873_a_at) / RFU LOC100653217 /// NTM (11731650_a_at) / Fold change /veh LOC100653217 /// NTM (11731650_a_at) / RFU MAPK11 (11762145_a_at) / Fold change /veh MAPK11 (11762145_a_at) / RFU FIZ1 (11724087_x_at) / Fold change /veh FIZ1 (11724087_x_at) / RFU OASL (11726364_x_at) / Fold change /veh OASL (11726364_x_at) / RFU SOX15 (11748057_x_at) / Fold change /veh SOX15 (11748057_x_at) / RFU CD79A (11719716_a_at) / Fold change /veh CD79A (11719716_a_at) / RFU HIST1H1D (11736915_at) / Fold change /veh HIST1H1D (11736915_at) / RFU CASKIN2 (11723855_a_at) / Fold change /veh CASKIN2 (11723855_a_at) / RFU LOC730098 (11760151_x_at) / Fold change /veh LOC730098 (11760151_x_at) / RFU OR4N2 (11742367_at) / Fold change /veh OR4N2 (11742367_at) / RFU PRRT2 (11749266_a_at) / Fold change /veh PRRT2 (11749266_a_at) / RFU SNX32 (11753110_a_at) / Fold change /veh SNX32 (11753110_a_at) / RFU CDHR5 (11726645_a_at) / Fold change /veh CDHR5 (11726645_a_at) / RFU RCAN1 (11760418_a_at) / Fold change /veh RCAN1 (11760418_a_at) / RFU FAM167A (11723789_a_at) / Fold change /veh FAM167A (11723789_a_at) / RFU FAM26E (11764081_at) / Fold change /veh FAM26E (11764081_at) / RFU ISYNA1 (11749810_s_at) / Fold change /veh ISYNA1 (11749810_s_at) / RFU ACY1 (11761880_at) / Fold change /veh ACY1 (11761880_at) / RFU 11764098_at / Fold change /veh 11764098_at / RFU SAMD14 (11745864_x_at) / Fold change /veh SAMD14 (11745864_x_at) / RFU NPB (11741838_a_at) / Fold change /veh NPB (11741838_a_at) / RFU TMPRSS6 (11731388_a_at) / Fold change /veh TMPRSS6 (11731388_a_at) / RFU KRTAP10-2 (11738614_at) / Fold change /veh KRTAP10-2 (11738614_at) / RFU ARHGAP8 /// PRR5-ARHGAP8 (11727945_x_at) / Fold change /veh ARHGAP8 /// PRR5-ARHGAP8 (11727945_x_at) / RFU KRTAP5-7 /// NADSYN1 (11734609_at) / Fold change /veh KRTAP5-7 /// NADSYN1 (11734609_at) / RFU RASL12 (11751679_a_at) / Fold change /veh RASL12 (11751679_a_at) / RFU CDKN2B (11736163_a_at) / Fold change /veh CDKN2B (11736163_a_at) / RFU PRF1 (11729649_at) / Fold change /veh PRF1 (11729649_at) / RFU, ZNF638 /// ZNF638-IT1 / Fold change vs veh, ZNF638 /// ZNF638-IT1 / RFU, PANK3 / Fold change vs veh, PANK3 / RFU, SH3YL1 / Fold change vs veh, SH3YL1 / RFU, ZEB2 / Fold change vs veh, ZEB2 / RFU, NRIP1 / Fold change vs veh, NRIP1 / RFU, PTTG1IP / Fold change vs veh, PTTG1IP / RFU, CAPN2 / Fold change vs veh, CAPN2 / RFU, MED14 / Fold change vs veh, MED14 / RFU, SNORA58 / Fold change vs veh, SNORA58 / RFU, C1orf63 / Fold change vs veh, C1orf63 / RFU, LRRFIP1 / Fold change vs veh, LRRFIP1 / RFU, NDUFAF7 / Fold change vs veh, NDUFAF7 / RFU, SLC12A2 / Fold change vs veh, SLC12A2 / RFU, IBTK / Fold change vs veh, IBTK / RFU, ESF1 / Fold change vs veh, ESF1 / Fold change vs veh, TMEM50B / RFU, TAOK1 / Fold change vs veh, TAOK1 / RFU, ACBD3 / Fold change vs veh, ACBD3 / RFU, TMA16 / Fold change vs veh, TMA16 / RFU, RWDD3 / Fold change vs veh, RWDD3 / RFU, BCAT1 / Fold change vs veh, BCAT1 / RFU, EDEM3 / Fold change vs veh, EDEM3 / RFU, TMEM33 / Fold change vs veh, TMEM33 / RFU, WDR75 / Fold change vs veh, WDR75 / RFU, AHCTF1 / Fold change vs veh, AHCTF1 / RFU, TFRC / Fold change vs veh, TFRC / RFU, ZDHHC17 / Fold change vs veh, ZDHHC17 / RFU, NOM1 / Fold change vs veh, NOM1 / RFU, ARL8B / Fold change vs veh, ARL8B / RFU, ZBTB11 / Fold change vs veh, ZBTB11 / RFU, TAMM41 / Fold change vs veh, TAMM41 / RFU, KIAA1704 /// LOC100996395 / Fold change vs veh, KIAA1704 /// LOC100996395 / RFU, ING1 / Fold change vs veh, ING1 / RFU, TRMT61B / Fold change vs veh, TRMT61B / RFU, FUBP3 / Fold change vs veh, FUBP3 / RFU, TP53 / Fold change vs veh, TP53 / RFU, TNKS2 / Fold change vs veh, TNKS2 / RFU, ZFP14 / Fold change vs veh, ZFP14 / RFU, ACTR2 / Fold change vs veh, ACTR2 / RFU, PPP3R1 / Fold change vs veh, PPP3R1 / RFU, PIK3R1 / Fold change vs veh, PIK3R1 / RFU, HNRNPA1 / Fold change vs veh, HNRNPA1 / RFU, RNF170 / Fold change vs veh, RNF170 / RFU, ZNF28 / Fold change vs veh, ZNF28 / RFU, RNGTT / Fold change vs veh, RNGTT / RFU, OGT / Fold change vs veh, OGT / RFU, BRD1 / Fold change vs veh, BRD1 / RFU, MARS / Fold change vs veh, MARS / RFU, ZNF655 / Fold change vs veh, ZNF655 / RFU, FAHD1 / Fold change vs veh, FAHD1 / RFU, BDP1 / Fold change vs veh, BDP1 / RFU, LRRCC1 / Fold change vs veh, LRRCC1 / RFU, ARID1A / Fold change vs veh, ARID1A / RFU, ZNF146 / Fold change vs veh, ZNF146 / RFU, ZNF330 / Fold change vs veh, ZNF330 / RFU, GPN3 / Fold change vs veh, GPN3 / RFU, C9orf123 / Fold change vs veh, C9orf123 / RFU, N4BP2L2 / Fold change vs veh, N4BP2L2 / RFU, ARFIP1 / Fold change vs veh, ARFIP1 / RFU, FAM179B / Fold change vs veh, FAM179B / RFU, BCL10 / Fold change vs veh, BCL10 / RFU, UHRF1BP1L / Fold change vs veh, UHRF1BP1L / RFU, BET1 / Fold change vs veh, BET1 / RFU, CNOT2 / Fold change vs veh, CNOT2 / RFU, ZNF268 / Fold change vs veh, ZNF268 / Fold change vs veh, ZNF507 / RFU, DGCR2 / Fold change vs veh, DGCR2 / RFU, WDSUB1 / Fold change vs veh, WDSUB1 / Fold change vs veh, HSP90B1 /// MIR3652 / RFU, ADSS / Fold change vs veh, ADSS / RFU, GK / Fold change vs veh, GK / RFU, ZNF148 / Fold change vs veh, ZNF148 / RFU, TAF9 / Fold change vs veh, TAF9 / RFU, SLC1A5 / Fold change vs veh, SLC1A5 / RFU, SLMO2 / Fold change vs veh, SLMO2 / RFU, ABCC4 / Fold change vs veh, ABCC4 / RFU, LOC101060439 /// RAP1B / Fold change vs veh, LOC101060439 /// RAP1B / RFU, RFX7 / Fold change vs veh, RFX7 / RFU, GTPBP10 / Fold change vs veh, GTPBP10 / RFU, CNEP1R1 / Fold change vs veh, CNEP1R1 / RFU, BIVM-ERCC5 /// ERCC5 / Fold change vs veh, BIVM-ERCC5 /// ERCC5 / RFU, ILF3 / Fold change vs veh, ILF3 / RFU 11762660_at / Fold change /veh 11762660_at / RFU VCAN (11757783_s_at) / Fold change /veh VCAN (11757783_s_at) / RFU DDX43 (11728927_at) / Fold change /veh DDX43 (11728927_at) / RFU KRT8 (11758188_x_at) / Fold change /veh KRT8 (11758188_x_at) / RFU NKD1 (11759106_at) / Fold change /veh NKD1 (11759106_at) / RFU SRD5A1 (11742802_a_at) / Fold change /veh SRD5A1 (11742802_a_at) / RFU TPSAB1 /// TPSB2 (11721975_s_at) / Fold change /veh TPSAB1 /// TPSB2 (11721975_s_at) / RFU GSTM3 (11746129_a_at) / Fold change /veh GSTM3 (11746129_a_at) / RFU IL23R (11737362_x_at) / Fold change /veh IL23R (11737362_x_at) / RFU TMEM51 (11727254_a_at) / Fold change /veh TMEM51 (11727254_a_at) / RFU PIWIL2 (11732686_x_at) / Fold change /veh PIWIL2 (11732686_x_at) / RFU ORM1 (11744905_x_at) / Fold change /veh ORM1 (11744905_x_at) / RFU CCDC152 (11743942_at) / Fold change /veh CCDC152 (11743942_at) / RFU ECM1 (11717891_a_at) / Fold change /veh ECM1 (11717891_a_at) / RFU IL23R (11748794_a_at) / Fold change /veh IL23R (11748794_a_at) / RFU TNFAIP8L3 (11732012_x_at) / Fold change /veh TNFAIP8L3 (11732012_x_at) / RFU MBOAT4 (11741988_at) / Fold change /veh MBOAT4 (11741988_at) / RFU 11764193_at / Fold change /veh 11764193_at / RFU TMEM53 (11763286_at) / Fold change /veh TMEM53 (11763286_at) / RFU MAGEB2 (11727129_at) / Fold change /veh MAGEB2 (11727129_at) / RFU TMEM200A (11744735_a_at) / Fold change /veh TMEM200A (11744735_a_at) / RFU CCDC152 (11751479_a_at) / Fold change /veh CCDC152 (11751479_a_at) / RFU FAM211A (11726209_a_at) / Fold change /veh FAM211A (11726209_a_at) / RFU RGS16 (11746705_a_at) / Fold change /veh RGS16 (11746705_a_at) / RFU VCAN (11755009_s_at) / Fold change /veh VCAN (11755009_s_at) / RFU RHOB (11743442_s_at) / Fold change /veh RHOB (11743442_s_at) / RFU RGS16 (11720943_a_at) / Fold change /veh RGS16 (11720943_a_at) / RFU RGS16 (11720944_at) / Fold change /veh RGS16 (11720944_at) / RFU, VPS4B / Fold change vs veh, VPS4B / RFU, CREB1 / Fold change vs veh, CREB1 / RFU, DNAJC13 / Fold change vs veh, DNAJC13 / RFU, GNAQ / Fold change vs veh, GNAQ / RFU, CDK5R1 / Fold change vs veh, CDK5R1 / RFU, ZRANB3 / Fold change vs veh, ZRANB3 / RFU, CUL4A / Fold change vs veh, CUL4A / RFU, CCNY / Fold change vs veh, CCNY / RFU, UFL1 / Fold change vs veh, UFL1 / RFU, COG3 / Fold change vs veh, COG3 / RFU, DIAPH2 / Fold change vs veh, DIAPH2 / RFU, SKA2 / Fold change vs veh, SKA2 / RFU, AFF3 / Fold change vs veh, AFF3 / RFU, LMF1 / Fold change vs veh, LMF1 / RFU, IPO11 / Fold change vs veh, IPO11 / RFU, DFFB / Fold change vs veh, DFFB / RFU, FOXP1 / Fold change vs veh, FOXP1 / RFU, CARD8 / Fold change vs veh, CARD8 / RFU, STRN3 / Fold change vs veh, STRN3 / RFU, ADK / Fold change vs veh, ADK / RFU, RASSF2 / Fold change vs veh, RASSF2 / RFU, WIPF1 / Fold change vs veh, WIPF1 / RFU, LARP1B / Fold change vs veh, LARP1B / RFU, RASA1 / Fold change vs veh, RASA1 / RFU, RB1 / Fold change vs veh, RB1 / RFU, PPFIA1 / Fold change vs veh, PPFIA1 / RFU, MAT2A / Fold change vs veh, MAT2A / RFU, CCT5 / Fold change vs veh, CCT5 / RFU, WDR92 / Fold change vs veh, WDR92 / RFU, CUX1 / Fold change vs veh, CUX1 / RFU, TTC7A / Fold change vs veh, TTC7A / RFU, TMEM135 / Fold change vs veh, TMEM135 / RFU, DEPTOR / Fold change vs veh, DEPTOR / RFU, CPM / Fold change vs veh, CPM / RFU, DNAJB6 / Fold change vs veh, DNAJB6 / RFU, CACNA2D3 / Fold change vs veh, CACNA2D3 / RFU, DTX4 / Fold change vs veh, DTX4 / RFU, TFCP2 / Fold change vs veh, TFCP2 / RFU, GMCL1 /// GMCL1P1 / Fold change vs veh, GMCL1 /// GMCL1P1 / RFU, AEBP2 / Fold change vs veh, AEBP2 / RFU, SNHG1 /// SNORD22 /// SNORD25 /// SNORD26 /// SNORD27 /// SNORD28 /// SNORD29 /// SNORD31 / Fold change vs veh, SNHG1 /// SNORD22 /// SNORD25 /// SNORD26 /// SNORD27 /// SNORD28 /// SNORD29 /// SNORD31 / Fold change (Aza/veh), C12orf56 (ProbeSet 11735607_a_at) / Fold change (ACY-1035/veh), C12orf56 (ProbeSet 11735607_a_at) / Fold change (Aza/veh), FGFR1OP (ProbeSet 11751329_s_at) / Fold change (ACY-1035/veh), FGFR1OP (ProbeSet 11751329_s_at) / Fold change (Aza/veh), VPS36 (ProbeSet 11739960_a_at) / Fold change (ACY-1035/veh), VPS36 (ProbeSet 11739960_a_at) / RFU SYPL1 (11715823_x_at) / Fold change /veh SYPL1 (11715823_x_at) / RFU IGFBP7 (11715501_s_at) / Fold change /veh IGFBP7 (11715501_s_at) / RFU REEP3 (11722064_at) / Fold change /veh REEP3 (11722064_at) / RFU IGLL1 (11728026_x_at) / Fold change /veh IGLL1 (11728026_x_at): dose or concentration left out as unconfirmed. The following applies: MV-4-11 cells, 48 hours. It counts as cell-based, human.

Take `Nc1ncn([C@@H]2O[C@H](CO)[C@@H](O)[C@H]2O)c(=O)n1` [azacitidine]: the “Fold change /veh CDHR5 (11726645_a_at)” value worked out at 1.19.
